Test results reported in patent US11414424B2, “Cardiac sarcomere inhibitors” (Cytokinetics, Inc., priority 2018, dated 2022).

Tested on: bovine cardiac myofibrils
Assay: Myofibril assay: PK/LDH-coupled steady-state ATPase activity of skinned bovine cardiac myofibrils
Format: biochemical
Conditions: Ca2+ activating to 75% of maximal rate
How it was run: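 Steady-state ATPase of detergent-skinned bovine left-ventricular myofibrils (1 mg/mL), PK/LDH-coupled NADH read at 340 nm, in PIPES/MgCl2 buffer pH 6.8 with 50 μM ATP, 0.6 mM EGTA and CaCl2 set for 50% or 75% activation. Inhibition of activity measured.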

SMILES | CDMF75 IC15 [nM]
N#Cc1ccc(N2CC(=O)N(Cc3ccc(C(F)(F)F)cc3)[C@]3(C[C@H](CO)C3)C2=O)c(F)c1 [Compound 475B] | 600
CC(C)(O)C1CC2(C1)C(=O)N(c1ccc(C#N)cc1F)CC(=O)N2Cc1ccc(C(F)(F)F)cc1 (stereo not drawn) [Compound 479B] | 2800
CNC(=O)[C@H]1C[C@]2(C1)C(=O)N(c1ccc(C#N)cc1F)CC(=O)N2Cc1ccc(C(F)(F)F)cc1 [Compound 486B] | 700
CNC(=O)[C@H]1C[C@]2(C1)C(=O)N(C(C)C)CC(=O)N2Cc1ccc(C(F)(F)F)cc1 [Compound 498B] | 29800
CC(=O)N1CC2(C1)C(=O)N(c1ncc(Cl)cc1F)CC(=O)N2Cc1ccc(C(F)(F)F)cc1 [Compound 528, 2-acetyl-8-(5-chloro-3-fluoropyridin-2-yl)-5-(4-(trifluoromethyl)benzyl)-2,5,8-triazaspiro[3.5]nonane-6,9-dione] | 2900
CC(=O)N1CC2(C1)C(=O)N(c1ncc(C#N)cc1C)CC(=O)N2Cc1ccc(C(F)(F)F)cc1 [Compound 529, 6-(2-acetyl-6,9-dioxo-5-(4-(trifluoromethyl)benzyl)-2,5,8-triazaspiro[3.5]nonan-8-yl)-5-methylnicotinonitrile] | 5500
CC(=O)N1CC2(C1)C(=O)N(c1ncc(C#N)cc1F)CC(=O)N2Cc1ccc(C(F)(F)F)cc1 [Compound 530, 6-(2-acetyl-6,9-dioxo-5-(4-(trifluoromethyl)benzyl)-2,5,8-triazaspiro[3.5]nonan-8-yl)-5-fluoronicotinonitrile] | 4700
CNc1ccccc1C(=O)N1CC2(C1)C(=O)N(c1ccc(C#N)cc1F)CC(=O)N2Cc1ccc(C(F)(F)F)cc1 [Compound 531, 3-fluoro-4-(2-(2-(methylamino)benzoyl)-6,9-dioxo-5-(4-(trifluoromethyl)benzyl)-2,5,8-triazaspiro[3.5]nonan-8-yl)benzonitrile] | 5000
COC(=O)c1ccccc1N1CC2(C1)C(=O)N(c1ccc(C#N)cc1F)CC(=O)N2Cc1ccc(C(F)(F)F)cc1 [Compound 532, methyl 2-(8-(4-cyano-2-fluorophenyl)-6,9-dioxo-5-(4-(trifluoromethyl)benzyl)-2,5,8-triazaspiro[3.5]nonan-2-yl)benzoate] | 200
COC(=O)c1cccc(N2CC3(C2)C(=O)N(c2ccc(C#N)cc2F)CC(=O)N3Cc2ccc(C(F)(F)F)cc2)c1 [Compound 533, methyl 3-(8-(4-cyano-2-fluorophenyl)-6,9-dioxo-5-(4-(trifluoromethyl)benzyl)-2,5,8-triazaspiro[3.5]nonan-2-yl)benzoate] | 300
COC(=O)c1ccc(N2CC3(C2)C(=O)N(c2ccc(C#N)cc2F)CC(=O)N3Cc2ccc(C(F)(F)F)cc2)cc1 [Compound 534, methyl 4-(8-(4-cyano-2-fluorophenyl)-6,9-dioxo-5-(4-(trifluoromethyl)benzyl)-2,5,8-triazaspiro[3.5]nonan-2-yl)benzoate] | 200
CNc1ccccc1N1CC2(C1)C(=O)N(c1ccc(C#N)cc1F)CC(=O)N2Cc1ccc(C(F)(F)F)cc1 [Compound 535, 3-fluoro-4-(2-(2-(methyl-amino)phenyl)-6,9-dioxo-5-(4-(trifluoromethyl)-benzyl)-2,5,8-triazaspiro-[3.5]nonan-8-yl)benzonitrile] | 300
CNc1cccc(N2CC3(C2)C(=O)N(c2ccc(C#N)cc2F)CC(=O)N3Cc2ccc(C(F)(F)F)cc2)c1 [Compound 536, 3-fluoro-4-[2-[3-(methylamino)phenyl]-6,9-dioxo-5-[[4-(trifluoromethyl)phenyl]methyl]-2,5,8-triazaspiro[3.5]nonan-8-yl]benzonitrile] | 200
CNC(=O)c1ccccc1N1CC2(C1)C(=O)N(c1ccc(C#N)cc1F)CC(=O)N2Cc1ccc(C(F)(F)F)cc1 [Compound 537, 2-(8-(4-cyano-2-fluorophenyl)-6,9-dioxo-5-(4-(trifluoromethyl)benzyl)-2,5,8-triazaspiro[3.5]nonan-2-yl)-N-methylbenzamide] | 300
CNc1ccc(N2CC3(C2)C(=O)N(c2ccc(C#N)cc2F)CC(=O)N3Cc2ccc(C(F)(F)F)cc2)cc1 [Compound 538, 3-fluoro-4-(2-(4-(methylamino)phenyl)-6,9-dioxo-5-(4-(trifluoromethyl)benzyl)-2,5,8-triazaspiro[3.5]nonan-8-yl)benzonitrile] | 200
CNC(=O)c1cccc(N2CC3(C2)C(=O)N(c2ccc(C#N)cc2F)CC(=O)N3Cc2ccc(C(F)(F)F)cc2)c1 [Compound 539, 3-(8-(4-cyano-2-fluorophenyl)-6,9-dioxo-5-(4-(trifluoromethyl)benzyl)-2,5,8-triazaspiro[3.5]nonan-2-yl)-N-methylbenzamide] | 200
CNC(=O)c1ccc(N2CC3(C2)C(=O)N(c2ccc(C#N)cc2F)CC(=O)N3Cc2ccc(C(F)(F)F)cc2)cc1 [Compound 540, 4-(8-(4-cyano-2-fluorophenyl)-6,9-dioxo-5-(4-(trifluoromethyl)benzyl)-2,5,8-triazaspiro[3.5]nonan-2-yl)-N-methylbenzamide] | 200
CNc1cc(N2CC3(C2)C(=O)N(c2ccc(C#N)cc2F)CC(=O)N3Cc2ccc(C(F)(F)F)cc2)ccc1C(=O)OC [Compound 541, methyl 4-(8-(4-cyano-2-fluorophenyl)-6,9-dioxo-5-(4-(trifluoromethyl)benzyl)-2,5,8-triazaspiro[3.5]nonan-2-yl)-2-(methylamino)benzoate] | 200
CNC(=O)c1ccc(N2CC3(C2)C(=O)N(c2ccc(C#N)cc2F)CC(=O)N3Cc2ccc(C(F)(F)F)cc2)cc1NC [Compound 542, 4-(8-(4-cyano-2-fluoro-phenyl)-6,9-dioxo-5-(4-(trifluoromethyl)benzyl)-2,5,8-triazaspiro[3.5]nonan-2-yl)-N-methyl-2-(methylamino)benzamide] | 200
CNc1ccc(N2CC3(C2)C(=O)N(c2ccc(C#N)cc2F)CC(=O)N3Cc2ccc(C(F)(F)F)cc2)cc1C(=O)OC [Compound 543, methyl 5-(8-(4-cyano-2-fluorophenyl)-6,9-dioxo-5-(4-(trifluoromethyl)benzyl)-2,5,8-triazaspiro[3.5]nonan-2-yl)-2-(methylamino)-benzoate] | 300
CNc1cccc(N2CC3(C2)C(=O)N(c2ccc(C#N)cc2F)CC(=O)N3Cc2ccc(C(F)(F)F)cc2)c1C(=O)OC [Compound 544, methyl 2-(8-(4-cyano-2-fluorophenyl)-6,9-dioxo-5-(4-(trifluoromethyl)benzyl)-2,5,8-triazaspiro[3.5]nonan-2-yl)-6-(methylamino)-benzoate] | 300
CNC(=O)c1cc(N2CC3(C2)C(=O)N(c2ccc(C#N)cc2F)CC(=O)N3Cc2ccc(C(F)(F)F)cc2)ccc1NC [Compound 545, 5-(8-(4-cyano-2-fluorophenyl)-6,9-dioxo-5-(4-(trifluoromethyl)benzyl)-2,5,8-triazaspiro[3.5]nonan-2-yl)-N-methyl-2-(methylamino)benzamide] | 200
CNc1c(C(=O)OC)cccc1N1CC2(C1)C(=O)N(c1ccc(C#N)cc1F)CC(=O)N2Cc1ccc(C(F)(F)F)cc1 [Compound 546, methyl 3-(8-(4-cyano-2-fluorophenyl)-6,9-dioxo-5-(4-(trifluoromethyl)benzyl)-2,5,8-triazaspiro[3.5]nonan-2-yl)-2-(methylamino)-benzoate] | 1000
CNC(=O)c1cccc(N2CC3(C2)C(=O)N(c2ccc(C#N)cc2F)CC(=O)N3Cc2ccc(C(F)(F)F)cc2)c1NC [Compound 547, 3-(8-(4-cyano-2-fluorophenyl)-6,9-dioxo-5-(4-(trifluoromethyl)benzyl)-2,5,8-triazaspiro[3.5]nonan-2-yl)-N-methyl-2-(methylamino)benzamide] | 400
O=C1CN(c2ncc(Cl)cc2F)C(=O)C2(CCC2)N1Cc1ccc(C(F)(F)F)cc1 [Compound 548, 8-(5-chloro-3-fluoropyridin-2-yl)-5-(4-(trifluoromethyl)-benzyl)-5,8-diazaspiro-[3.5]nonane-6,9-dione] | 600
O=C1CN(c2ncc(Cl)cc2F)C(=O)C2(CC2)N1Cc1ccc(C(F)(F)F)cc1 [Compound 550, 7-(5-chloro-3-fluoropyridin-2-yl)-4-(4-(trifluoromethyl)benzyl)-4,7-diazaspiro[2.5]octane-5,8-dione] | 800
O=C1CN(c2ncc(Cl)cc2F)C(=O)C2(COC2)N1Cc1ccc(C(F)(F)F)cc1 [Compound 551, 8-(5-chloro-3-fluoropyridin-2-yl)-5-(4-(trifluoromethyl)-benzyl)-2-oxa-5,8-diazaspiro[3.5]nonane-6,9-dione] | 2480
CNC(=O)N1CC2(C1)C(=O)N(c1ncc(Cl)cc1F)CC(=O)N2Cc1ccc(C(F)(F)F)cc1 [Compound 552, 8-(5-chloro-3-fluoropyridin-2-yl)-N-methyl-6,9-dioxo-5-(4-(trifluoromethyl)-benzyl)-2,5,8-triazaspiro-[3.5]nonane-2-carboxamide] | 500
O=C1CN(c2ncc(Cl)cc2F)C(=O)C2(CCOC2)N1Cc1ccc(C(F)(F)F)cc1 (stereo not drawn) [Compound 553, 9-(5-chloro-3-fluoropyridin-2-yl)-6-(4-(trifluoromethyl)-benzyl)-2-oxa-6,9-diazaspiro[4.5]decane-7,10-dione] | 1400
CC(C)[C@H]1C(=O)N(c2ncc(Cl)cc2F)CC(=O)N1Cc1ccc(C(F)(F)F)cc1 [Compound 554, (S)-1-(5-chloro-3-fluoro-pyridin-2-yl)-3-isopropyl-4-(4-(trifluoromethyl)-benzyl)piperazine-2,5-dione] | 400
